Test results taken from patent US10662195B2, “Protein kinase conjugates and inhibitors” (Celgene Avilomics Research, Inc., priority 2009, dated 2020).
pIC50: −log10 of the molar value.

Assays:
FLT3 = biological target: T1, FLT3 (Homo sapiens, UniProt P36888); assay: FLT-3 Omnia continuous-read kinase assay; format: biochemical; settings: 30 min pre-incubation, [ATP]=500 μM; read-out: IC50_APP FLT3
T1 construct: purchased PV3182
T1 sequence (P36888 27-993): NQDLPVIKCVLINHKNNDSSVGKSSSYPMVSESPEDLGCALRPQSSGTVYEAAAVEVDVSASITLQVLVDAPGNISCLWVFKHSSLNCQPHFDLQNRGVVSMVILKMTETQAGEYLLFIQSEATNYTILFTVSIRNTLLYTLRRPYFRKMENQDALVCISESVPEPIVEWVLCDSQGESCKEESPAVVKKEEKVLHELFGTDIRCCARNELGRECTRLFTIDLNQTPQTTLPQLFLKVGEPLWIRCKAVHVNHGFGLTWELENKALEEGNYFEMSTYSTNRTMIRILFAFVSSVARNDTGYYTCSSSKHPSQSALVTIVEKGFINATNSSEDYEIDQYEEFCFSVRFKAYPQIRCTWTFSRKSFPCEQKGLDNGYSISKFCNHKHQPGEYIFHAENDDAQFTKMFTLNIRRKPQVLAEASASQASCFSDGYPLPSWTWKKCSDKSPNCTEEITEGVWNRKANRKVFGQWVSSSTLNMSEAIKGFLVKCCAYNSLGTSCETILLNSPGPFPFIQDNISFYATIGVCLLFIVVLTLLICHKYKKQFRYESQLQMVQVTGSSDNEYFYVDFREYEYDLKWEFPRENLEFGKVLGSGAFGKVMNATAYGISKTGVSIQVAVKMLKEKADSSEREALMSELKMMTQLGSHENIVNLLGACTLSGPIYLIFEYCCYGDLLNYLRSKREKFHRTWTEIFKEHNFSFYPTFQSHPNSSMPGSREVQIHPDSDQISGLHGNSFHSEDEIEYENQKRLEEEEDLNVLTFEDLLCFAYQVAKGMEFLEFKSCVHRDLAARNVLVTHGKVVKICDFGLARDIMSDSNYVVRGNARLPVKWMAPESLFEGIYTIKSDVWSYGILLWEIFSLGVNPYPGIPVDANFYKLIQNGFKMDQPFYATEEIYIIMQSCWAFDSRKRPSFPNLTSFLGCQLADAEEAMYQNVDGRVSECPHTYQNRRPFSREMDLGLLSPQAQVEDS
Experimental: (§1) A. KDR and FLT-3 Omnia Assay for Potency Assessment:
(§2) The protocol below describes a continuous-read kinase assay to measure inherent potency of Avila Therapeutics' compounds against active KDR and FLT-3 enzymes. The assay was performed substantially as described by the vendor (Invitrogen, Carlsbad, Calif.; http://www.invitrogen.com/content.cfm?pageid=11338.)
(§3) Briefly, 10× stocks of KDR from Invitrogen or BPS Bioscience (PV3660 or 40301) and FLT-3 (PV3182) enzymes, 1.13×ATP (AS001A) and Y9-Sox or Y12-Sox peptide substrates (KCZ1001) were prepared in 1× kinase reaction buffer consisting of 20 mM Tris, pH 7.5, 5 mM MgCl2, 1 mM EGTA, 5 mM β-glycerophosphate, 5% glycerol (10× stock, KB002A) and 0.2 mM DTT (DS001A). 5 μL of enzyme were pre-incubated in a Corning (#3574) 384-well, white, non-binding surface microtiter plate (Corning, N.Y.) for 30 min at 27° C. with a 0.5 μL volume of 50% DMSO and serially diluted compounds prepared in 50% DMSO. Kinase reactions were started with the addition of 45 μL of the ATP/Y9 or Y5-Sox peptide substrate mix and monitored every 30-90 seconds for 60 minutes at λex360/λem485 in a Synergy^4 plate reader from BioTek (Winooski, Vt.). At the conclusion of each assay, progress curves from each well were examined for linear reaction kinetics and fit statistics (R^2, 95% confidence interval, absolute sum of squares). Initial velocity (0 minutes to 20+ minutes) from each reaction was determined from the slope of a plot of relative fluorescence units vs time (minutes) and then plotted against inhibitor concentration to estimate IC50 from Log [Inhibitor] vs Response, Variable Slope model in GraphPad Prism from GraphPad Software (San Diego, Calif.).
[FLT-3]=15 nM, [ATP]=500 μM and [Y5-Sox peptide]=10 μM (ATP KMapp=470 μM)
(§4) The reported IC50_APP and IC50 values are in units of nM.

KDR = KDR (Homo sapiens, UniProt P35968); assay: KDR Omnia continuous-read kinase assay; format: biochemical; set-up: purchased Invitrogen or BPS Bioscience PV3660 or 40301; settings: 30 min pre-incubation; read-out: IC50_APP KDR
Experimental: as §1, §2
as §3, with “Calif.). […]” for “Calif.).”
as §4

Chain of KDR (P35968 20-1356): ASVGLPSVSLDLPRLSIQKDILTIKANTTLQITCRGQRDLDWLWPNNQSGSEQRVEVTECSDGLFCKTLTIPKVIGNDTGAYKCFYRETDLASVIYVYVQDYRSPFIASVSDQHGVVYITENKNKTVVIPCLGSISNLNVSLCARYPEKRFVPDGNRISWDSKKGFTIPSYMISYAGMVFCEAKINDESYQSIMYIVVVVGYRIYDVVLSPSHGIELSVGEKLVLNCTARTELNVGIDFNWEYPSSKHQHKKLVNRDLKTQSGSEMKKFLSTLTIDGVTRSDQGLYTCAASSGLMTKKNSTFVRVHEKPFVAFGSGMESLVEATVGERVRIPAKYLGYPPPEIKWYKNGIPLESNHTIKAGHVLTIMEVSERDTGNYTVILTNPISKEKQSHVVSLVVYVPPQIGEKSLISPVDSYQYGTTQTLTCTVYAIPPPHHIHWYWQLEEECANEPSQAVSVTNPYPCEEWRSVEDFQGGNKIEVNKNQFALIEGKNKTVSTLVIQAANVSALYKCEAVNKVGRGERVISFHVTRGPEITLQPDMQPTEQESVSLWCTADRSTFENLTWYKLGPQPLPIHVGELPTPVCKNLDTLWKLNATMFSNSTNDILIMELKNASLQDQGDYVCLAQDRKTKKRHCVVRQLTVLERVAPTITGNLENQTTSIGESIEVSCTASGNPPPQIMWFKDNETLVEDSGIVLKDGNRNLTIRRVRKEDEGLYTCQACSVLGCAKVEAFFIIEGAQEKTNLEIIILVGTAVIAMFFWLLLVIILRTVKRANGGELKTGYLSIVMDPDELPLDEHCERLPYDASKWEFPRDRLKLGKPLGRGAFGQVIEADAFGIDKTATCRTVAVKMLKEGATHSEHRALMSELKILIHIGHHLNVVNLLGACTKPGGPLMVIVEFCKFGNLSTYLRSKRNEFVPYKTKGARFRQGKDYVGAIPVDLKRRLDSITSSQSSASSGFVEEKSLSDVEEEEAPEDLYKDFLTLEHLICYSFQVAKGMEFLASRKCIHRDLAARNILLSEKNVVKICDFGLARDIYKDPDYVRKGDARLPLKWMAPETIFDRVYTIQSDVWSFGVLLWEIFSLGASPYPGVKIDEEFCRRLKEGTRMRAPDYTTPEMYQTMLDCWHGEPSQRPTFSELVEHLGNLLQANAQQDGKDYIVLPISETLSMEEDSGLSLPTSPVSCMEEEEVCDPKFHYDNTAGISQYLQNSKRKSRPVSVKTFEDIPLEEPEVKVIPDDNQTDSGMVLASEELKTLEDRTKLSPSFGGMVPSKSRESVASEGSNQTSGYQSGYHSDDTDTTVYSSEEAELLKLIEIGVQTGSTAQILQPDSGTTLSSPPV

Question: With `C=CC(=O)N1CCC(Sc2nc(Nc3ncc(C#N)s3)cc(N3CCN(C)CC3)n2)CC1` [II-2, 2-(2-(1-Acryloylpiperidin-4-ylthio)-6-(4-methylpiperazin-1-yl)pyrimidin-4-ylamino)thiazole-5-carbonitrile] as the molecule, how does the pIC50 (FLT3) read?
Answer: The pIC50 was 9.29.

Question: What about the pIC50 (KDR) of the same molecule?
Answer: The pIC50 was 7.29.
